Where “and” joins values, the source holds several entries; their conditions need not be identical. Identical values can stand only once. Inconclusive results and toxic doses are left out.
System: L1210 leukemia ip in BDF1 mice, survival T/C
Experiment: NCI In Vivo Anticancer Drug Screen. Data for tumor model L1210 Leukemia (intraperitoneal) in B6D2F1 (BDF1) mice
Conditions: endpoint: mean survival time, higher = longer survival
Method in brief: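 Read-out is survival time, reported as the treated-group measurement over the vehicle-control measurement.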

[1] = dose: 100.0 mg/kg/injection, schedule: Q04DX002 (ip), vehicle: saline
[2] = dose: 200.0 mg/kg/injection, schedule: Q04DX002 (ip), vehicle: saline
[3] = dose: 400.0 mg/kg/injection, schedule: Q04DX002 (ip), vehicle: saline
[4] = dose: 50.0 mg/kg/injection, schedule: Q01DX009 (ip), vehicle: Klucel (hydroxypropylcellulose) (HPC)
[5] = dose: 100.0 mg/kg/injection, schedule: Q01DX009 (ip), vehicle: Klucel (hydroxypropylcellulose) (HPC)
[6] = dose: 200.0 mg/kg/injection, schedule: Q01DX009 (ip), vehicle: Klucel (hydroxypropylcellulose) (HPC)
[7] = dose: 400.0 mg/kg/injection, schedule: Q01DX009 (ip), vehicle: Klucel (hydroxypropylcellulose) (HPC)

For `CC12CCC(O)(CC1)CC2(O)c1ccccc1` (stereo not drawn), the T/C [1] was 102 % of control, the T/C [2] was 95 % of control and the T/C [3] was 98 % of control.

`O=C(CCN(Cc1ccccc1)Cc1ccccc1)c1csc2ccccc12` was tested, and the T/C (dose: 100.0 mg/kg/injection, schedule: Q01DX001 (ip), vehicle: carboxymethylcellulose (CMC)) was 96 % of control, the T/C (dose: 200.0 mg/kg/injection, schedule: Q01DX001 (ip), vehicle: carboxymethylcellulose (CMC)) was 89 % of control and the T/C (dose: 400.0 mg/kg/injection, schedule: Q01DX001 (ip), vehicle: carboxymethylcellulose (CMC)) was 94 % of control.

With `CC(=O)c1cccc(N=C=O)c1` the T/C (dose: 25.0 mg/kg/injection, schedule: Q01DX001 (ip), vehicle: saline with Tween-80) was 101 % of control, the T/C (dose: 50.0 mg/kg/injection, schedule: Q01DX001 (ip), vehicle: saline with Tween-80) was 93 % of control and the T/C (dose: 100.0 mg/kg/injection, schedule: Q01DX001 (ip), vehicle: saline with Tween-80) was 111 % of control.

With `Cc1ccc(C2NC(=O)c3ccccc3N2)c(C)c1` (stereo not drawn) the T/C [4] was 100 % of control, the T/C [5] was 94 % of control and 99 % of control and the T/C (dose: 100.0 mg/kg/injection, schedule: Q04DX003 (ip), vehicle: Klucel (hydroxypropylcellulose) (HPC)) was 103 % of control. For the same molecule, the T/C (dose: 150.0 mg/kg/injection, schedule: Q01DX009 (ip), vehicle: Klucel (hydroxypropylcellulose) (HPC)) was 93 % of control, the T/C [6] was 106 % of control and the T/C (dose: 200.0 mg/kg/injection, schedule: Q04DX003 (ip), vehicle: Klucel (hydroxypropylcellulose) (HPC)) was 95 % of control. The T/C [7] was 96 % of control and the T/C (dose: 400.0 mg/kg/injection, schedule: Q04DX003 (ip), vehicle: Klucel (hydroxypropylcellulose) (HPC)) was 95 % of control.

With `Brc1ccc(Br)c2cnccc12` the T/C (dose: 100.0 mg/kg/injection, schedule: Q01DX001 (ip), vehicle: other) was 93 % of control, the T/C (dose: 200.0 mg/kg/injection, schedule: Q01DX001 (ip), vehicle: other) was 106 % of control and the T/C (dose: 400.0 mg/kg/injection, schedule: Q01DX001 (ip), vehicle: other) was 104 % of control.

In the case of `C/C=C/C=C/COC(=O)CCCCCCCCC`, the T/C [1] is reported as 100 % of control, the T/C [2] is reported as 121 % of control and the T/C [3] is reported as 108 % of control.

In the case of `COc1ccc([N+](=O)[O-])cc1NS(=O)(=O)c1ccc(Cl)cc1`, the T/C [5] is reported as 102 % of control, the T/C [6] is reported as 98 % of control and the T/C [7] is reported as 93 % of control.

`O=C(O)C(=O)Nc1ncn[nH]1` was tested, and the T/C (dose: 6.25 mg/kg/injection, schedule: Q01DX009 (ip), vehicle: Klucel (hydroxypropylcellulose) (HPC)) was 104 % of control, the T/C (dose: 12.5 mg/kg/injection, schedule: Q01DX005 (ip), vehicle: Klucel (hydroxypropylcellulose) (HPC)) was 102 % of control and the T/C (dose: 12.5 mg/kg/injection, schedule: Q01DX009 (ip), vehicle: Klucel (hydroxypropylcellulose) (HPC)) was 96 % of control and 104 % of control. The T/C (dose: 25.0 mg/kg/injection, schedule: Q01DX009 (ip), vehicle: Klucel (hydroxypropylcellulose) (HPC)) was 100 % of control and 104 % of control, the T/C (dose: 50.0 mg/kg/injection, schedule: Q01DX005 (ip), vehicle: Klucel (hydroxypropylcellulose) (HPC)) was 105 % of control and 106 % of control and the T/C [4] was 107 % of control and 114 % of control. The T/C (dose: 100.0 mg/kg/injection, schedule: Q04DX002 (ip), vehicle: Klucel (hydroxypropylcellulose) (HPC)) was 96 % of control and the T/C (dose: 200.0 mg/kg/injection, schedule: Q04DX002 (ip), vehicle: Klucel (hydroxypropylcellulose) (HPC)) was 98 % of control.

With `CN(C)c1ccc(/C=C2\SC(=S)N(c3ccccc3)C2=O)cc1` the T/C (dose: 50.0 mg/kg/injection, schedule: Q01DX009 (ip), vehicle: saline with Tween-80) was 96 % of control, the T/C (dose: 100.0 mg/kg/injection, schedule: Q01DX009 (ip), vehicle: saline with Tween-80) was 103 % of control and the T/C (dose: 200.0 mg/kg/injection, schedule: Q01DX009 (ip), vehicle: saline with Tween-80) was 100 % of control.

`O=NN(CCCl)C(=O)NC1CCSc2ccccc21` (stereo not drawn) was tested, and the T/C (dose: 18.0 mg/kg/injection, schedule: Q01DX001 (ip), vehicle: other) was 170 % of control and 182 % of control and 219 % of control, the T/C (dose: 26.0 mg/kg/injection, schedule: Q01DX001 (ip), vehicle: other) was 232 % of control and the T/C (dose: 27.0 mg/kg/injection, schedule: Q01DX001 (ip), vehicle: other) was 306 % of control and 315 % of control. For the same molecule, the T/C (dose: 40.0 mg/kg/injection, schedule: Q01DX001 (ip), vehicle: other) was 323 % of control and 340 % of control and 356 % of control, the T/C (dose: 60.0 mg/kg/injection, schedule: Q01DX001 (ip), vehicle: other) was 289 % of control and 313 % of control and 365 % of control and the T/C (dose: 187.5 mg/kg/injection, schedule: Q01DX001 (ip), vehicle: other) was 96 % of control.
